Results on five molecules are retold here after patent publication US20080096807A1, “Cyclic vasoactive intestinal peptide receptor-2 agonists” (priority 2006, published 2008).

pEC50: −log10 of the molar value. Bridge positions count the residues as written; N and C are the ends. Square brackets hold non-standard residues; d marks the D form. Peptide text beside a SMILES is read from it. ξ: configuration not given here. Thr(3ξ) = CC(O)[C@H](N)C(=O)O; Nle = CCCC[C@H](N)C(=O)O

One series has as its target T1, VPAC2 receptor (Homo sapiens, UniProt P41587).
T1 construct: The human T-lymphoid cell line Sup-Ti, which expresses the VPAC2 receptor; host or cells: Sup-T1 (Sup-Ti [sic]) human T-lymphoid cell line
T1 sequence (P41587 24-438): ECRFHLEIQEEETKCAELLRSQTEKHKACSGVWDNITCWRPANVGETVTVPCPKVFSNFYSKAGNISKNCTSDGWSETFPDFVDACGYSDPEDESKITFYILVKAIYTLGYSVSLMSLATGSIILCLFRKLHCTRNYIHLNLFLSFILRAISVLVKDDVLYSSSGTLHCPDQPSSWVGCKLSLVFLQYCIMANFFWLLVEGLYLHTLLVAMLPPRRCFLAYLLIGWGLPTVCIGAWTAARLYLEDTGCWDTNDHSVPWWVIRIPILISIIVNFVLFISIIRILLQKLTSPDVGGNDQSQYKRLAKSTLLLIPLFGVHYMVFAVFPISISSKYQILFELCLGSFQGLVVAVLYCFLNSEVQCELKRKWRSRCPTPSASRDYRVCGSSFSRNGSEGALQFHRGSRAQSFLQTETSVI
The series is described as follows: Sup-T1 cAMP agonist assay. The series is classed as cell-based. The settings on record: human T-lymphoid cell line Sup-T1 expressing VPAC2 receptor; cAMP EIA; 5 min at room temperature; read-out: Sup-T1 cAMP EC50. The method, then:
The human T-lymphoid cell line Sup-Ti, which expresses the VPAC2 receptor, was obtained from the American Type Culture Collection (ATCC, CRL-1942) and maintained in growth medium at densities between 0.2 and 2×10^6 cells/ml in a 37° C. CO2 incubator. The growth medium was RPMI 1640 (Invitrogen) supplemented with 25 mM HEPES buffer and 10% fetal bovine serum (Gemini Bioproducts).
To evaluate VPAC2 agonist compound activity, cells in log-phase growth were washed once with growth medium at room temperature and plated into 96-well plates at a density of 4×10^4 cells per well in 150 uL of growth medium. Fifty uL of the compounds to be tested, prepared at appropriate concentrations in growth medium, were then added to designated wells. After 5 min at room temperature, the cells were lysed by adding 25 uL of lysis reagent 1A (cAMP Biotrak EIA system, Amersham Biosciences, RPN225) to each well. The 96-well plates were kept at room temperature for 10 min with shaking and then stored at 4° C. until analysis for cAMP (within 2 hr).
Cyclic AMP levels were determined in 100 uL of each lysate using the cAMP Biotrak Enzymeimmunoassay (EIA) kit according to the manufacture's instructions (Amersham Biosciences, RPN225). The activity of each VPAC2 agonist compound (EC50 value) was estimated by fitting the 7-concentration dose response data to a sigmoidal dose-response equation provided by the GraphPad Prism program (GraphPad Software, Inc.).

Series [1] relates to LPS-induced lung inflammation in male C57BL/6 mice. The series is described as follows: LPS-induced lung inflammation in male C57BL/6 mice (BAL neutrophilia). In kind it is in vivo. The settings on record: BAL fluid neutrophilia. The method, then: C57bl/6 mice are pretreated with vehicle or drug prior to an aerosol expose to lipopolysacchride (LPS, 500 μg/ml in sterile saline) for 15-30 minutes. The aerosol is generated by a Pari Ultra neb jet nebulizer, the outlet of which is connected to a small clear plastic chamber [H×W×D, 10.7×25.7×11 cm (4×10×4.5 in)] containing the animals. Bronchoalveolar lavage (BAL) is performed 24 hr later to determine the intensity of cell inflammation. BAL procedure is performed as described below.
Mice are pretreated with vehicle or drug prior to an intranasal administration of lipopolysacchride (0.05-0.3 mg/kg in sterile saline; 50 μl total volume, 25 μl/nostril). Intranasal administration is performed by presenting small droplets of the dosing solution at the nostril using a 25-50 μl eppendorff pipet. BAL is performed 3 to 24 h post LPS challenged as described above to determine the intensity of cell inflammation.
24 h following LPS exposure, animals are anesthetized with pentobarbital (80-100 mg/kg, i.p.), ketamine/xyzaline (80-120 mg/kg/2-4 mg/kg, i.p.) or urethane (1.5-2.4 g/kg, i.p.); and through a small midline neck incision (15-20 mm), the trachea is exposed and cannulated with 20-gauge tubing adapter. Lungs are lavaged with 2×1 ml sterile Hank's balanced salt solution without Ca++ and Mg++(HBSS). Lavage fluid is recovered after 30 sec by gentle aspiration and pooled for each animal. Samples are then centrifuged at 2000 rpm for 10 minutes at 5° C. Supernatant is aspirated, and red blood cells are lysed from the resulting pellet with 0.5 ml distilled water for 30 sec before restoring osmolarity to the remaining cells by the addition of 5 ml of HBSS. Samples are recentrifuged at 2000 rpm for 10 minutes at 5° C. and supernatant aspirated. The resulting pellet is resuspended in 1 ml of HBSS. Total cell number is determined by Trypan Blue (Sigma Chemical, St. Louis, Mo.) exclusion from an aliquot of cell suspension using a hemocytometer or coulter counter. For differential cell counts, an aliquot of the cell suspension is centrifuged in a Cytospin (5 min, 1300 rpm; Shandon Southern Instruments, Sewickley, Pa.) and the slides fixed and stained with a modified Wright's stain (Hema 3 stain kit, Fisher Scientific). Standard morphological criteria is used in classifying at least 300 cells under light microscopy. Data in Table 3 is expressed as BAL cells×10^4/animal for neutrophils and total cells, or percent inhibition of the LPS induced BAL fluid neutrophilia response.

Series [2] has as its target T2, human neutrophil elastase (Homo sapiens, UniProt P08246).
T2 sequence (P08246 30-247 limits assumed): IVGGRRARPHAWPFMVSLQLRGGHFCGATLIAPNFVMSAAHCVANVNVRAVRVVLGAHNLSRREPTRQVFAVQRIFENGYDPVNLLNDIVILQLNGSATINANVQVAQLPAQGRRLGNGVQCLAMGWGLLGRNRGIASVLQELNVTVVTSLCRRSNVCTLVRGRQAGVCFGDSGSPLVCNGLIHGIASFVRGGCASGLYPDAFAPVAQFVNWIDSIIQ
Nature of the series: Peptide stability to neutrophil elastase (RP HPLC ESI MS). As to conditions: halftime with human neutrophil elastase 1 to 2 μg/mL in PBS, ambient temperature, normalized to halftime of the reference standard.
Experimental: The proteolytic stabilities of peptide analogs were established with reversed phase high pressure liquid chromatography (RP HPLC) electrospray ionization mass spectrometry (ESI MS). Peptide analogs were incubated with human neutrophile elastase and the quantity of undigested analogs was determined by ESI MS at appropriate time points. Multiple peptide analogs could be included in one experiment as long as they could be differentiated by HPLC retention time and/or by molecular weight. Ac-His Ac-[sequence]Nle-[sequence]NH2 was used in all experiments as a control and as a reference standard. The simultaneous use of multiple peptide analogs together with a reference standard allowed for compensation for variations in the proteolytic fidelity of the enzyme over the multiple experiments. Integrated ion currents obtained for the individual undigested peptide were used for quantitation. For calculation of halftime first-order kinetic behavior was assumed and all calculations were normalized to the halftime of the reference standard.
Peptide stock solutions were prepared in water to a concentration of 2.5 mg/mL. Unless in use, all stock solutions were kept at −20° C. […] Concentrations of the peptide analogs were adjusted accordingly. In order to do the proteolytic digestion, peptides were dissolved in phosphate buffered saline (PBS) to a concentration of 0.1 mg/mL. As many as six different peptide analogs were mixed into one 50 μL reaction volume. The reference standard was added to all experiments as a reference and internal standard. Elastase (Human Neutrophil, Calbiochem, Cat # 324681) was added from an elastase stock solution to a concentration of 1 to 2 μg/mL. Different amounts of the enzyme were chosen to compensate for the differences in the proteolytic stabilities of the peptide analogs. Previously, a stock solution of elastase was prepared in water at a concentration of 1 mg/mL. Small aliquots of the enzyme stock solution were kept at −20° C. to better maintain the enzyme activity by limiting the number of thaw and freeze cycles.
The digestion was done at ambient temperature in an autosampler tube within the autosampler of the HPLC system (Agilent 1100 Series). For a time course, 5 μL aliquots were injected in 70 minute intervals onto the reversed phase HPLC column (Phenomenex, Luna C18, 3μ, 100 ↑, 150×2.00 mm). For the starting time point an aliquot was injected just prior to the addition of the proteolytic enzyme. A total of eight time points could be recorded from one experiment, including the starting point. Peptides were separated on the reversed phase column with a 50 minute gradient of 5% to 30% organic phase. The aqueous phase was 0.05% (v/v) of trifluoroacetic acid in water and the organic one was 0.045% (v/v) of trifluoroacetic acid in acetonitrile. Absorbances were recorded at 214 and 280 nm respectively. All of the column effluent was introduced into the turbo V source of the electrospray ionization mass spectrometer (ABI 4000 QTrap LC/MS/MS System). Mass spectra were acquired in Q3MS mode in a mass range to include all triply charged ions of the non degraded peptide analogs. Care was taken to assure that peptide analogs could clearly be differentiated either by the chromatographic retention time or by the difference in molecular weight. Relative quantities of the respective undigested peptide analog were calculated from the integrated total ion current. A window of 2.5 Da was chosen and the manufacturer's software was used to integrate the individual ion currents. The overall halftime of an individual peptide analog was calculated by assuming first-order kinetic behavior and was normalized with respect to the halftime of the reference standard.

One may read the pEC50 as the EC50 on a negative log10 scale, so that one unit is a factor of ten.

With `CCCC[C@H](NC(=O)[C@H](CCC(N)=O)NC(=O)[C@H](CCCCN)NC(=O)[C@H](CCCNC(=N)N)NC(=O)[C@H](CC(C)C)NC(=O)[C@H](CCCCN)NC(=O)[C@@H](NC(=O)[C@H](Cc1ccc(O)cc1)NC(=O)[C@H](CC(N)=O)NC(=O)[C@H](CCC(=O)O)NC(=O)[C@@H](NC(=O)[C@H](Cc1ccccc1)NC(=O)[C@@H](NC(=O)[C@H](C)NC(=O)[C@H](CC(=O)O)NC(=O)[C@H](CO)NC(=O)[C@H](Cc1c[nH]cn1)NC(C)=O)C(C)O)C(C)O)C(C)O)C(=O)N[C@@H](C)C(=O)N[C@@H](C)C(=O)N[C@@H](CCCCN)C(=O)N[C@H]1CCCCNC(=O)C[C@@H](C(=O)N[C@@H](CC(C)C)C(=O)N[C@@H](CCCCN)C(=O)N[C@@H](CCCCN)C(=O)NCC(=O)NCC(=O)N[C@H](C(N)=O)C(C)O)NC(=O)[C@H](CC(N)=O)NC(=O)[C@H](CC(C)C)NC(=O)[C@H](Cc2ccc(O)cc2)NC1=O` (stereo partly drawn) [Example 1] (Ac-HSDA[Thr(3ξ)]F[Thr(3ξ)]ENY[Thr(3ξ)]KLRKQ[Nle]AAKKYLNDLKKGG[Thr(3ξ)]-NH2; lactam 21-25), on VPAC2 receptor, the pEC50 was 7.42. Moreover, the “Inhibition of LPS-induced neutrophilia” value in series [1] (Dose 0.1%) was “+ (+ 10-30%)”. Also, the Relative elastase stability in series [2] is recorded as 3.9.

In the case of `CCCC[C@H](NC(=O)[C@H](CCC(N)=O)NC(=O)[C@H](CCCCN)NC(=O)[C@H](CCCNC(=N)N)NC(=O)[C@H](CC(C)C)NC(=O)[C@H](CCCCN)NC(=O)[C@@H](NC(=O)[C@H](Cc1ccc(O)cc1)NC(=O)[C@H](CC(N)=O)NC(=O)[C@H](CCC(=O)O)NC(=O)[C@@H](NC(=O)[C@H](Cc1ccccc1)NC(=O)[C@H](CO)NC(=O)[C@H](C)NC(=O)[C@H](CC(=O)O)NC(=O)[C@H](CO)NC(=O)[C@H](Cc1c[nH]cn1)NC(C)=O)C(C)O)C(C)O)C(=O)N[C@@H](C)C(=O)N[C@@H](C)C(=O)N[C@@H](CCCCN)C(=O)N[C@H]1CCCCNC(=O)C[C@@H](C(=O)N[C@@H](CC(C)C)C(=O)N[C@@H](CCCCN)C(=O)N[C@@H](CCCCN)C(=O)NCC(=O)NCC(=O)N[C@H](C(N)=O)C(C)O)NC(=O)[C@H](CC(N)=O)NC(=O)[C@H](CC(C)C)NC(=O)[C@H](Cc2ccc(O)cc2)NC1=O` (stereo partly drawn) [Example 2] (Ac-HSDASF[Thr(3ξ)]ENY[Thr(3ξ)]KLRKQ[Nle]AAKKYLNDLKKGG[Thr(3ξ)]-NH2; lactam 21-25), the pEC50 on VPAC2 receptor is 7.16. For the same molecule, the “Inhibition of LPS-induced neutrophilia” value in series [1] (Dose 0.1%) is “+ (+ 10-30%)”. The molecule also registered a Relative elastase stability in series [2] of 5.2.

As for `CCCC[C@H](NC(=O)[C@H](CCC(N)=O)NC(=O)[C@H](CCCCN)NC(=O)[C@H](CCCNC(=N)N)NC(=O)[C@H](CC(C)C)NC(=O)[C@H](CCCCN)NC(=O)[C@@H](NC(=O)[C@H](Cc1ccc(O)cc1)NC(=O)[C@H](CC(N)=O)NC(=O)[C@H](CCC(=O)O)NC(=O)[C@@H](NC(=O)[C@H](Cc1ccccc1)NC(=O)[C@H](CO)NC(=O)[C@H](C)NC(=O)[C@H](CC(=O)O)NC(=O)[C@H](CO)NC(=O)[C@H](Cc1c[nH]cn1)NC(C)=O)C(C)O)C(C)O)C(=O)N[C@@H](CCC(=O)O)C(=O)N[C@@H](C)C(=O)N[C@@H](CCCCN)C(=O)N[C@H]1CCCCNC(=O)C[C@@H](C(=O)N[C@@H](CC(C)C)C(=O)N[C@@H](CCCCN)C(=O)N[C@@H](CCCCN)C(=O)NCC(=O)NCC(=O)N[C@H](C(N)=O)C(C)O)NC(=O)[C@H](CC(N)=O)NC(=O)[C@H](CC(C)C)NC(=O)[C@H](Cc2ccc(O)cc2)NC1=O` (stereo partly drawn) [Example 7] (Ac-HSDASF[Thr(3ξ)]ENY[Thr(3ξ)]KLRKQ[Nle]EAKKYLNDLKKGG[Thr(3ξ)]-NH2; lactam 21-25), the pEC50 on VPAC2 receptor was 6.20. Moreover, the “Inhibition of LPS-induced neutrophilia” value in series [1] (Dose 0.01%) is recorded as “++ (++ >30%)”. In addition, the Relative elastase stability in series [2] turned out to be 16.4.

Turning to `CCCC[C@H](NC(=O)[C@H](CCC(N)=O)NC(=O)[C@H](CCCCN)NC(=O)[C@H](CCCNC(=N)N)NC(=O)[C@H](CC(C)C)NC(=O)[C@H](CCCCN)NC(=O)[C@@H](NC(=O)[C@H](Cc1ccc(O)cc1)NC(=O)[C@H](CC(N)=O)NC(=O)[C@H](CCC(=O)O)NC(=O)[C@@H](NC(=O)[C@H](Cc1ccccc1)NC(=O)[C@H](CO)NC(=O)[C@H](C)NC(=O)[C@H](CC(=O)O)NC(=O)[C@H](CO)NC(=O)[C@H](Cc1c[nH]cn1)NC(C)=O)C(C)O)C(C)O)C(=O)N[C@@H](C)C(=O)N[C@@H](C)C(=O)N[C@@H](CCCCN)C(=O)N[C@H]1CCCCNC(=O)C[C@@H](C(=O)N[C@@H](CC(C)C)C(=O)N[C@@H](CC(C)C)C(=O)N[C@@H](CCCCN)C(=O)NCC(=O)NCC(=O)N[C@H](C(N)=O)C(C)O)NC(=O)[C@H](CC(N)=O)NC(=O)[C@H](CC(C)C)NC(=O)[C@H](Cc2ccc(O)cc2)NC1=O` (stereo partly drawn) [Example 8] (Ac-HSDASF[Thr(3ξ)]ENY[Thr(3ξ)]KLRKQ[Nle]AAKKYLNDLLKGG[Thr(3ξ)]-NH2; lactam 21-25), the pEC50 at VPAC2 receptor is 7.94. Also, the “Inhibition of LPS-induced neutrophilia” value in series [1] (Dose 0.1%) is recorded as “++ (++ >30%)”. For the same molecule, the Relative elastase stability in series [2] stood at 3.5.

Turning to `CCCC[C@H](NC(=O)[C@H](CCC(N)=O)NC(=O)[C@H](CCCCN)NC(=O)[C@H](CCCNC(=N)N)NC(=O)[C@H](CC(C)C)NC(=O)[C@H](CCCCN)NC(=O)[C@@H](NC(=O)[C@H](Cc1ccc(O)cc1)NC(=O)[C@H](CC(N)=O)NC(=O)[C@H](CCC(=O)O)NC(=O)[C@@H](NC(=O)[C@H](Cc1ccccc1)NC(=O)[C@H](CO)NC(=O)[C@H](C)NC(=O)[C@H](CC(=O)O)NC(=O)[C@H](CO)NC(=O)[C@H](Cc1c[nH]cn1)NC(C)=O)C(C)O)C(C)O)C(=O)N[C@@H](CCCCN)C(=O)N[C@@H](C)C(=O)N[C@@H](CCCCN)C(=O)N[C@H]1CCCCNC(=O)C[C@@H](C(=O)N[C@@H](CC(C)C)C(=O)N[C@@H](CCCCN)C(=O)N[C@@H](CCCCN)C(=O)NCC(=O)NCC(=O)N[C@H](C(N)=O)C(C)O)NC(=O)[C@H](CC(N)=O)NC(=O)[C@H](CC(C)C)NC(=O)[C@H](Cc2ccc(O)cc2)NC1=O` (stereo partly drawn) [Example 9] (Ac-HSDASF[Thr(3ξ)]ENY[Thr(3ξ)]KLRKQ[Nle]KAKKYLNDLKKGG[Thr(3ξ)]-NH2; lactam 21-25), at VPAC2 receptor, the pEC50 was 5.92. Further, the “Inhibition of LPS-induced neutrophilia” value in series [1] (Dose 0.01%) was “+ (+ 10-30%)”. Besides, in series [2], the Relative elastase stability was found to be 12.0.
